Source: the AptaBench aptamer set (doi:10.1093/nar/gkaf219)
Blank lines part the entries; values can stand above or below the molecule they belong to.

Assays:
Conditions in all cases: 10 mM Tris-HCl, pH 7.4
[1] = test system: DNA aptamer or structured DNA CTTACGACGGTGGGGGGTTGGTAGGGGAGGAGCGCATCGTCGTAAG
[2] = test system: DNA aptamer or structured DNA CTTACGACATCTGCGTGTGGCCGGTGTGAGGGAGGGATGTCGTAAG
[3] = test system: DNA aptamer or structured DNA GGGACGACGGATTGCGCTTGCTAACGCCGTGTAGAGTCGTCGTCCC
[4] = test system: DNA aptamer or structured DNA GGGACGACATGGGATACCAGAGTCCTGGGATGTGGTGTGTCGTCCC
[5] = test system: DNA aptamer or structured DNA GGGACGACGGGATGTGGTGTCAGTCATGATGGGATCAAGTCGTCCC
[6] = test system: DNA aptamer or structured DNA GGGACGACGCGTACTTCCAGTAGCCGTGCGTCGTTCAAGTCGTCCC
Wherever binding call is given: call rule not given here.

- binding call [1]: no binding
Structure (SMILES): CCOC(=O)c1ccc(N)cc1

Structure (SMILES): CN[C@@H](C)Cc1ccccc1
- binding call [2]: binds

- binding call [3]: no binding
Structure (SMILES): CN(C)CCOC(c1ccccc1)c1ccccc1

- binding call [1]: no binding
Structure (SMILES): NCCc1ccc(O)c(O)c1

- binding call [2]: no binding
- binding call [1]: no binding
- binding call [3]: no binding
Structure (SMILES): Cn1c(=O)c2c(ncn2C)n(C)c1=O

Structure (SMILES): COC(=O)[C@@H]1C2CCC(C[C@@H]1OC(=O)c1ccccc1)N2C (stereo partly drawn)
- Kd [1]: 1100 nM

Structure (SMILES): COc1ccc2c3c1O[C@H]1C(=O)CC[C@@]4(O)[C@@H](C2)N(C)CC[C@]314
- Kd [4]: 2770 nM
- Kd [3]: 2160 nM
- Kd [5]: 3650 nM

Structure (SMILES): C=CCN1CC[C@]23c4c5ccc(O)c4O[C@H]2C(=O)CC[C@@]3(O)[C@H]1C5
- binding call [4]: no binding
- binding call [6]: no binding

- binding call [5]: no binding
Structure (SMILES): CC(=O)Nc1ccc(O)cc1

Structure (SMILES): NCCc1c[nH]c2ccc(O)cc12
- binding call [1]: no binding

Structure (SMILES): CC(=O)Oc1ccc2c3c1O[C@H]1[C@@H](OC(C)=O)C=C[C@H]4[C@@H](C2)N(C)CC[C@@]341
- binding call [2]: binds
- Kd [6]: 4080 nM

- binding call [6]: no binding
Structure (SMILES): C=C[C@H]1CN2CC[C@@H]1C[C@H]2[C@H](O)c1ccnc2ccc(OC)cc12

Structure (SMILES): CN1C(=O)CN=C(c2ccccc2)c2cc(Cl)ccc21
- binding call [4]: no binding
- binding call [3]: no binding

- binding call [2]: binds
Structure (SMILES): CCN(CC)CCOC(=O)c1ccc(N)cc1

Structure (SMILES): O=C1CC[C@@]2(O)[C@H]3Cc4ccc(O)c5c4[C@@]2(CCN3CC2CC2)[C@H]1O5
- binding call [6]: no binding

Structure (SMILES): CN[C@@H](C)[C@@H](O)c1ccccc1
- binding call [2]: binds
